Test results: patent US20230183216A1, “PYRIDIZIN-3(2H)-ONE DERIVATIVES” (Gilead Sciences, Inc., priority 2021, published 2023)

Key:
PARP7 = biological target: T1, PARP7 (Homo sapiens, UniProt Q7Z3E1); assay: biochemical;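 note: MSD light signal quantifying PARP7 captured by a plate-immobilized probe, read after 1.5 h equilibration plus 1.5 h with SULFO-TAG anti-GST antibody at room temperature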
T1 sequence (Q7Z3E1 1-657): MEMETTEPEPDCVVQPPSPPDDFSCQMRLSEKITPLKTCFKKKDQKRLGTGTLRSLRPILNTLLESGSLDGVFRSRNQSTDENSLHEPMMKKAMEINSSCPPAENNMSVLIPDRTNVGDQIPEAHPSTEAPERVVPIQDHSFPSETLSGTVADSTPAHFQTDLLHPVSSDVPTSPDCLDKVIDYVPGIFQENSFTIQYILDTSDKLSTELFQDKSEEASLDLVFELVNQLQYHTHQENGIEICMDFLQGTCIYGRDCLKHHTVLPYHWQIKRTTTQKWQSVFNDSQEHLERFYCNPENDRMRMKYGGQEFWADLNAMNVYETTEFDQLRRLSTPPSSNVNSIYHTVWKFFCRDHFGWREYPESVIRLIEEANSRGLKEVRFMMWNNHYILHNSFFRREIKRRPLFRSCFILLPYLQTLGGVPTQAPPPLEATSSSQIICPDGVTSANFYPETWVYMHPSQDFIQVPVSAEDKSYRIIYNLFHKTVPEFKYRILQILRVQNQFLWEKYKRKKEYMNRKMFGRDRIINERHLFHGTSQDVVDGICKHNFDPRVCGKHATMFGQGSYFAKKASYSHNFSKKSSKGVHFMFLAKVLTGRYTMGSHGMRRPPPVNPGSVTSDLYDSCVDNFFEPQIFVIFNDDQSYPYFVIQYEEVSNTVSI
Procedure: Probe Displacement Assay for PARP7 Displacement of a biotinylated probe (RBN011147; Wigle et al., Cell Chemical Biology, 2020, pp. 877-887) from the PARP7 NAD+-binding site was measured in vitro using a Mesoscale Discovery electrochemiluminescent assay. […] Next, 10 μl of 10 nM PARP7 protein incubated for 1 hour at room temperature with a dose response curve of each test compound in a Greiner LDV polypropylene plate (#781201) is added to the MSD plate containing the immobilized probe. The interaction is allowed to reach equilibrium for 1.5 hours, and then 10 ul of SULFO-TAG labeled anti-GST antibody (Cat #R32AA-1) is added to each well and allowed to incubate for an additional 1.5 hours at room temperature. Finally, 10 μl of MSD read buffer T (4×, Cat. #R92C-1) is added to each well using a Bravo liquid handler to prevent air bubbles in the wells, and the plates are subsequently read in an MSD instrument. Light intensity is then measured to quantify the amount of PARP7 bound to the immobilized probe on the plate.

[1] = tested on: STAT1 (phosphorylated at Tyr701) in NCI-H1373 cells; assay: Phospho-STAT1 (Tyr701) LANCE Ultra TR-FRET Detection Assay; type: cell-based; settings: Homo sapiens, 48 hours, induction of pSTAT1, normalized to 10 uM positive control and DMSO, 4-parameter fit, read-out: NH1373 pSTAT1 EC50
Procedure: Phospho-STAT1 (Tyr701 LANCE Ultra TR-FRET Detection Assay
LANCE Ultra phospho-STAT1 (Tyr701) kits available from Perkin Elmer are designed for the detection of phosphorylated STAT1 in cell lysates using a simple, homogeneous LANCE Ultra sandwich assay (Cat. #TRF4028M). This assay is intended for assessing compound induction of endogenous levels of cellular STAT1 (phosphorylated at Tyr701) in NCI-H1373 cells. The NCI-H1373 cells are cultured in RPMI 1640 media containing 10% heat inactivated FBS, GlutaMAX, 1% Penicillin-Streptomycin. An Echo acoustic liquid handler is used to transfer 60 nanoliters of compound dilutions using the Echo Qualified, 384-well polypropylene microplate clear flat bottom source plates into a Greiner (#781080) cell culture microplate. NCI-H1373 cells are seeded into these compound-spotted culture plates at 30,000 cells/well in a 60 uL volume in growth media. The plates are incubated in a 5% CO2 humidified incubator at 37° C. for 48 hours. […] Briefly, 20 μL of supplemented lysis buffer is added to each well and allowed to shake for 1 hour at 400 rpm. Next, 5 ul of remixed antibody solutions (vol/vol) prepared in detection buffer are added to each well and allowed to incubate at room temperature overnight. After spinning the plate down at 300 rpm for […], the plate is read on an EnVision plate reader set up for Eu3+ Cryptate and fluorescence emission is measured at two different wavelengths (665 nm and 620 nm).

Row | IC50 (PARP7) [nM] | Compound | EC50 [1] [nM]
1 | 4.67 | O=C(CCCc1cc(C(F)(F)F)c(=O)[nH]n1)N1CCN(c2ncc(C(F)(F)F)cn2)CC1 [Example 11, 6-(4-oxo-4-(4-(5-(trifluoromethyl)pyrimidin-2-yl)piperazin-1-yl)butyl)-4-(trifluoromethyl)pyridazin-3(2H)-one] | 1500
2 | 0.364 | O=C(CC1(CNc2cc(C(F)(F)F)c(=O)[nH]n2)CC1)N1CCN(c2ncc(C(F)(F)F)cn2)CC1 [Example 12, 6-(((1-(2-oxo-2-(4-(5-(trifluoromethyl)pyrimidin-2-yl)piperazin-1-yl)ethyl)cyclopropyl)methyl)amino)-4-(trifluoromethyl)pyridazin-3(2H)-one] | 201
3 | 1.33 | O=C(OCCCc1cc(C(F)(F)F)c(=O)[nH]n1)N1CCN(c2ncc(C(F)(F)F)cn2)CC1 [Example 13, 3-(6-oxo-5-(trifluoromethyl)-1,6-dihydropyridazin-3-yl)propyl 4-(5-(trifluoromethyl)pyrimidin-2-yl)piperazine-1-carboxylate] | 1160
4 | 1.22 | O=C(OC/C=C/c1cc(C(F)(F)F)c(=O)[nH]n1)N1CCN(c2ncc(C(F)(F)F)cn2)CC1 [Example 14, (E)-3-(6-oxo-5-(trifluoromethyl)-1,6-dihydropyridazin-3-yl)allyl 4-(5-(trifluoromethyl)pyrimidin-2-yl)piperazine-1-carboxylate] | 1000
5 | 0.263 | O=C(CCCNc1cc(C(F)(F)F)c(=O)[nH]n1)N1CCN(c2ncc(C(F)(F)F)cn2)CC1 [Example 15, 6-((4-oxo-4-(4-(5-(trifluoromethyl)pyrimidin-2-yl)piperazin-1-yl)butyl)amino)-4-(trifluoromethyl)pyridazin-3(2H)-one] | 71.9
6 | 1.15 | O=C(CNc1cc(C(F)(F)F)c(=O)[nH]n1)N1CCN(c2ncc(C(F)(F)F)cn2)CC1 [Example 16, 6-((2-oxo-2-(4-(5-(trifluoromethyl)pyrimidin-2-yl)piperazin-1-yl)ethyl)amino)-4-(trifluoromethyl)pyridazin-3(2H)-one] | 171
7 | 12.1 | O=C(CCNc1cc(C(F)(F)F)c(=O)[nH]n1)N1CCN(c2ncc(C(F)(F)F)cn2)CC1 [Example 17, 6-((3-oxo-3-(4-(5-(trifluoromethyl)pyrimidin-2-yl)piperazin-1-yl)propyl)amino)-4-(trifluoromethyl)pyridazin-3(2H)-one] | 973
8 | 32.7 | O=C(c1cccc(Nc2cc(C(F)(F)F)c(=O)[nH]n2)c1)N1CCN(c2ncc(C(F)(F)F)cn2)CC1 [Example 18, 4-(trifluoromethyl)-6-((3-(4-(5-(trifluoromethyl)pyrimidin-2-yl)piperazine-1-carbonyl)phenyl)amino)pyridazin-3(2H)-one] | ≥ 10000
9 | 16.3 | O=C(c1cccc(CNc2cc(C(F)(F)F)c(=O)[nH]n2)c1)N1CCN(c2ncc(C(F)(F)F)cn2)CC1 [Example 19, 4-(trifluoromethyl)-6-((3-(4-(5-(trifluoromethyl)pyrimidin-2-yl)piperazine-1-carbonyl)benzyl)amino)pyridazin-3(2H)-one] | ≥ 10000
10 | 1.76 | O=C(OCCNc1cc(C(F)(F)F)c(=O)[nH]n1)N1CCN(c2ncc(C(F)(F)F)cn2)CC1 [Example 20, 2-((6-oxo-5-(trifluoromethyl)-1,6-dihydropyridazin-3-yl)amino)ethyl4-(5-(trifluoromethyl)pyrimidin-2-yl)piperazine-1-carboxylate] | ≥ 10000
11 | 18.6 | O=c1[nH]nc(NCCCS(=O)(=O)N2CCN(c3ncc(C(F)(F)F)cn3)CC2)cc1C(F)(F)F [Example 21, 4-(trifluoromethyl)-6-((3-((4-(5-(trifluoromethyl)pyrimidin-2-yl)piperazin-1-yl)sulfonyl)propyl)amino)pyridazin-3(2H)-one] | ≥ 10000
12 | 2.57 | O=C([C@@H]1C[C@H]1CNc1cc(C(F)(F)F)c(=O)[nH]n1)N1CCN(c2ncc(C(F)(F)F)cn2)CC1 [Example 22, 4-(trifluoromethyl)-6-((((1R,2R)-2-(4-(5-(trifluoromethyl)pyrimidin-2-yl)piperazine-1-carbonyl)cyclopropyl)methyl)amino)pyridazin-3(2H)-one] | ≥ 10000
13 | 0.521 | O=C(CCCCNc1cc(C(F)(F)F)c(=O)[nH]n1)N1CCN(c2ncc(C(F)(F)F)cn2)CC1 [Example 23, 6-((5-oxo-5-(4-(5-(trifluoromethyl)pyrimidin-2-yl)piperazin-1-yl)pentyl)amino)-4-(trifluoromethyl)pyridazin-3(2H)-one] | 532
14 | 0.141 | O=C([C@@H](O)CCNc1cc(C(F)(F)F)c(=O)[nH]n1)N1CCN(c2ncc(C(F)(F)F)cn2)CC1 [Example 25, (S)-6-((3-hydroxy-4-oxo-4-(4-(5-(trifluoromethyl)pyrimidin-2-yl)piperazin-1-yl)butyl)amino)-4-(trifluoromethyl)pyridazin-3(2H)-one] | 21.3
15 | 1.6 | O=C([C@H](O)CCNc1cc(C(F)(F)F)c(=O)[nH]n1)N1CCN(c2ncc(C(F)(F)F)cn2)CC1 [Example 26, (R)-6-((3-hydroxy-4-oxo-4-(4-(5-(trifluoromethyl)pyrimidin-2-yl)piperazin-1-yl)butyl)amino)-4-(trifluoromethyl)pyridazin-3(2H)-one] | 901
16 | 0.212 | O=C(CC[C@@H]1CCCN1c1cc(C(F)(F)F)c(=O)[nH]n1)N1CCN(c2ncc(C(F)(F)F)cn2)CC1 [Example 27, (S)-6-(2-(3-oxo-3-(4-(5-(trifluoromethyl)pyrimidin-2-yl)piperazin-1-yl)propyl)pyrrolidin-1-yl)-4-(trifluoromethyl)pyridazin-3(2H)-one] | 9.31
17 | 0.879 | O=C([C@@H]1CCCCN1c1cc(C(F)(F)F)c(=O)[nH]n1)N1CCN(c2ncc(C(F)(F)F)cn2)CC1 [Example 28, (S)-4-(trifluoromethyl)-6-(2-(4-(5-(trifluoromethyl)pyrimidin-2-yl)piperazine-1-carbonyl)piperidin-1-yl)pyridazin-3(2H)-one] | 264
18 | 30.6 | CN(c1cccc(C(=O)N2CCN(c3ncc(C(F)(F)F)cn3)CC2)c1)c1cc(C(F)(F)F)c(=O)[nH]n1 [Example 29, 6-(methyl(3-(4-(5-(trifluoromethyl)pyrimidin-2-yl)piperazine-1-carbonyl)phenyl)amino)-4-(trifluoromethyl)pyridazin-3(2H)-one] | ≥ 10000
19 | 2.32 | O=C(C[C@@H]1CCCCN1c1cc(C(F)(F)F)c(=O)[nH]n1)N1CCN(c2ncc(C(F)(F)F)cn2)CC1 [Example 30, (S)-6-(2-(2-oxo-2-(4-(5-(trifluoromethyl)pyrimidin-2-yl)piperazin-1-yl)ethyl)piperidin-1-yl)-4-(trifluoromethyl)pyridazin-3(2H)-one] | 779
20 | 0.671 | O=C(CC[C@@H]1CCCCN1c1cc(C(F)(F)F)c(=O)[nH]n1)N1CCN(c2ncc(C(F)(F)F)cn2)CC1 [Example 31, (S)-6-(2-(3-oxo-3-(4-(5-(trifluoromethyl)pyrimidin-2-yl)piperazin-1-yl)propyl)piperidin-1-yl)-4-(trifluoromethyl)pyridazin-3(2H)-one] | 172
